Data reported in ChEMBL document CHEMBL5108010, “Structure-activity relationship studies on divalent naphthalene diimide G quadruplex ligands with anticancer and antiparasitic activity” (Bioorg Med Chem, 2022).
“And” between values parts separate entries of the source, which are not always exact repeats. Equal values may be shown once.

Test system: not listed separately
Test: (§1) Cytotoxicity against human MRC5 cells assessed as inhibition of cell proliferation incubated for 72 hrs by alamar blue assay
Type: toxicity, cell-based
Conditions: human, MRC5 cells

First: O=C1c2ccc3c4c(ccc(c24)C(=O)N1c1ccc(N2CCOCC2)cc1)C(=O)N(c1ccc(N2CCOCC2)cc1)C3=O
Second: CN1CCN(c2ccccc2N2C(=O)c3ccc4c5c(ccc(c35)C2=O)C(=O)N(c2ccccc2N2CCN(C)CC2)C4=O)CC1
The IC50 at 72 h of the first is 46-fold higher: 68400 nM for the first, 1500 nM for the second.

First: CN1CCN(CCN2C(=O)c3ccc4c5c(ccc(c35)C2=O)C(=O)N(CCN2CCN(C)CC2)C4=O)CC1
Second: C[n+]1cc(N2C(=O)c3ccc4c5c(ccc(c35)C2=O)C(=O)N(c2cc3ccccc3[n+](C)c2)C4=O)cc2ccccc21
The IC50 at 72 h of the first is 2-fold higher: 6780 nM for the first, 3410 nM for the second.

Test system: MRC5
Test: as §1
Type: toxicity, cell-based
Conditions: mrc5

With `CN1CCN(c2ccccc2N2C(=O)c3ccc4c5c(ccc(c35)C2=O)C(=O)N(c2ccccc2N2CCN(C)CC2)C4=O)CC1` the IC50 was 1230 nM.

Test system: not listed separately
Test: Selectivity index, ratio of IC50 for cytotoxicity against human MRC5 cells to IC50 for antitrypanosomal activity against Trypanosoma brucei bloodstream form
Type: toxicity, cell-based
Conditions: not given

In the case of `CN1CCN(c2ccccc2N2C(=O)c3ccc4c5c(ccc(c35)C2=O)C(=O)N(c2ccccc2N2CCN(C)CC2)C4=O)CC1`, the “Ratio IC50” value is reported as 30.69 and 10.53.

Same assay, conditions: MRC5 cells versus Trypanosoma brucei bloodstream form, read-out: Ratio IC50

Compared with `O=C1c2ccc3c4c(ccc(c24)C(=O)N1c1ccc(N2CCOCC2)cc1)C(=O)N(c1ccc(N2CCOCC2)cc1)C3=O`, `C[n+]1cc(N2C(=O)c3ccc4c5c(ccc(c35)C2=O)C(=O)N(c2cc3ccccc3[n+](C)c2)C4=O)cc2ccccc21` is lower in selectivity ratio: 4.88 for the first, 0.17 for the second.

Molecule `CN1CCN(CCN2C(=O)c3ccc4c5c(ccc(c35)C2=O)C(=O)N(CCN2CCN(C)CC2)C4=O)CC1` has a selectivity ratio of 14.2.

Test system: Quadruplex DNA
Test: Binding affinity to G-quadruplex telomeric DNA F21T (5'-duplex GGG TTAGGG TTAGGG TTAGGG-3') (unknown origin) assessed as stabilization by measuring change in melting temperature at 10 uM in potassium buffer by FRET melting assay
Type: nucleic-acid assay
Conditions: not given

With `CN1CCN(c2ccccc2N2C(=O)c3ccc4c5c(ccc(c35)C2=O)C(=O)N(c2ccccc2N2CCN(C)CC2)C4=O)CC1` the ΔTm was 1.6 °C and 1.9 °C.

Compared with `CN1CCN(CCN2C(=O)c3ccc4c5c(ccc(c35)C2=O)C(=O)N(CCN2CCN(C)CC2)C4=O)CC1`, `C[n+]1cc(N2C(=O)c3ccc4c5c(ccc(c35)C2=O)C(=O)N(c2cc3ccccc3[n+](C)c2)C4=O)cc2ccccc21` is lower in ΔTm: 21.5 °C for the first, 0.3 °C for the second.

Test system: Trypanosoma brucei
Test: Antitrypanosomal activity against Trypanosoma brucei bloodstream form assessed as inhibition of parasite growth incubated for 72 hrs by alamar blue assay
Type: functional, organism-based
Conditions: not given

For `CN1CCN(c2ccccc2N2C(=O)c3ccc4c5c(ccc(c35)C2=O)C(=O)N(c2ccccc2N2CCN(C)CC2)C4=O)CC1`, the IC50 was 48 nM and 110 nM.

Same assay, conditions: Trypanosoma brucei, 72 h

`O=C1c2ccc3c4c(ccc(c24)C(=O)N1c1ccc(N2CCOCC2)cc1)C(=O)N(c1ccc(N2CCOCC2)cc1)C3=O` and `C[n+]1cc(N2C(=O)c3ccc4c5c(ccc(c35)C2=O)C(=O)N(c2cc3ccccc3[n+](C)c2)C4=O)cc2ccccc21` are within 1.5-fold of each other in IC50: 14000 nM for the first, 19700 nM for the second.

In the case of `CN1CCN(CCN2C(=O)c3ccc4c5c(ccc(c35)C2=O)C(=O)N(CCN2CCN(C)CC2)C4=O)CC1`, the IC50 is reported as 480 nM.

Test system: Quadruplex DNA
Test: Binding affinity to G-quadruplex telomeric DNA F21T (5'-duplex GGG TTAGGG TTAGGG TTAGGG-3') (unknown origin) assessed as stabilization by measuring change in melting temperature at 10 uM in sodium buffer by FRET melting assay
Type: nucleic-acid assay
Conditions: not given

With `CN1CCN(c2ccccc2N2C(=O)c3ccc4c5c(ccc(c35)C2=O)C(=O)N(c2ccccc2N2CCN(C)CC2)C4=O)CC1` the ΔTm was 1.4 °C and 1.9 °C.

First: CN1CCN(CCN2C(=O)c3ccc4c5c(ccc(c35)C2=O)C(=O)N(CCN2CCN(C)CC2)C4=O)CC1
Second: C[n+]1cc(N2C(=O)c3ccc4c5c(ccc(c35)C2=O)C(=O)N(c2cc3ccccc3[n+](C)c2)C4=O)cc2ccccc21
The ΔTm of the first is higher: 11.3 °C for the first, 0.4 °C for the second.

Test system: Leishmania major
Test: Antileishmanial activity against Leishmania major (MHOM/IL/80/Friedlin) promastigotes assessed as inhibition of parasite growth incubated for 72 hrs by MTT assay
Type: functional, organism-based
Conditions: not given

For `CN1CCN(c2ccccc2N2C(=O)c3ccc4c5c(ccc(c35)C2=O)C(=O)N(c2ccccc2N2CCN(C)CC2)C4=O)CC1`, the IC50 was 790 nM and 3110 nM.

Same assay, conditions: Leishmania major, MHOM/IL/80/Friedlin, 72 h

`O=C1c2ccc3c4c(ccc(c24)C(=O)N1c1ccc(N2CCOCC2)cc1)C(=O)N(c1ccc(N2CCOCC2)cc1)C3=O` and `C[n+]1cc(N2C(=O)c3ccc4c5c(ccc(c35)C2=O)C(=O)N(c2cc3ccccc3[n+](C)c2)C4=O)cc2ccccc21` are within 1.5-fold of each other in IC50: 45400 nM for the first, 52100 nM for the second.

For `CN1CCN(CCN2C(=O)c3ccc4c5c(ccc(c35)C2=O)C(=O)N(CCN2CCN(C)CC2)C4=O)CC1`, the IC50 was 1680 nM.

Test system: not listed separately
Test: Selectivity index, ratio of IC50 for cytotoxicity against human MRC5 cells to IC50 for cytotoxicity against human HeLa cells
Type: toxicity, cell-based
Conditions: not given

In the case of `CN1CCN(c2ccccc2N2C(=O)c3ccc4c5c(ccc(c35)C2=O)C(=O)N(c2ccccc2N2CCN(C)CC2)C4=O)CC1`, the “Ratio IC50” value is reported as 1.66.

Same assay, conditions: MRC5 cells versus HeLa cells, read-out: Ratio IC50

First: O=C1c2ccc3c4c(ccc(c24)C(=O)N1c1ccc(N2CCOCC2)cc1)C(=O)N(c1ccc(N2CCOCC2)cc1)C3=O
Second: CN1CCN(c2ccccc2N2C(=O)c3ccc4c5c(ccc(c35)C2=O)C(=O)N(c2ccccc2N2CCN(C)CC2)C4=O)CC1
The selectivity ratio of the first is higher: 1.47 for the first, 1.23 for the second.

Compared with `CN1CCN(CCN2C(=O)c3ccc4c5c(ccc(c35)C2=O)C(=O)N(CCN2CCN(C)CC2)C4=O)CC1`, `C[n+]1cc(N2C(=O)c3ccc4c5c(ccc(c35)C2=O)C(=O)N(c2cc3ccccc3[n+](C)c2)C4=O)cc2ccccc21` is lower in selectivity ratio: 6.4 for the first, 0.053 for the second.

Test system: not listed separately
Test: Binding affinity to hairpin duplex DNA F10T (unknown origin) assessed as stabilization by measuring change in melting temperature at 10 uM in potassium buffer by FRET melting assay
Conditions: not given

With `CN1CCN(c2ccccc2N2C(=O)c3ccc4c5c(ccc(c35)C2=O)C(=O)N(c2ccccc2N2CCN(C)CC2)C4=O)CC1` the ΔTm was 0.1 °C and -0.3 °C.

First: CN1CCN(CCN2C(=O)c3ccc4c5c(ccc(c35)C2=O)C(=O)N(CCN2CCN(C)CC2)C4=O)CC1
Second: C[n+]1cc(N2C(=O)c3ccc4c5c(ccc(c35)C2=O)C(=O)N(c2cc3ccccc3[n+](C)c2)C4=O)cc2ccccc21
The ΔTm of the first is higher: 2.7 °C for the first, 0.1 °C for the second.

Test system: HeLa
Test: Cytotoxicity against human HeLa cells assessed as inhibition of cell proliferation incubated for 72 hrs by alamar blue assay
Type: functional, cell-based
Conditions: Homo sapiens, HeLa, 72 h

Compared with `O=C1c2ccc3c4c(ccc(c24)C(=O)N1c1ccc(N2CCOCC2)cc1)C(=O)N(c1ccc(N2CCOCC2)cc1)C3=O`, `CN1CCN(c2ccccc2N2C(=O)c3ccc4c5c(ccc(c35)C2=O)C(=O)N(c2ccccc2N2CCN(C)CC2)C4=O)CC1` is 38-fold lower in IC50: 46400 nM for the first, 1210 nM for the second.

Going from `CN1CCN(CCN2C(=O)c3ccc4c5c(ccc(c35)C2=O)C(=O)N(CCN2CCN(C)CC2)C4=O)CC1` to `C[n+]1cc(N2C(=O)c3ccc4c5c(ccc(c35)C2=O)C(=O)N(c2cc3ccccc3[n+](C)c2)C4=O)cc2ccccc21`, the IC50 rises from 1060 nM to 64800 nM (61-fold). The first is the more potent here.

Same assay, conditions: hela

With `CN1CCN(c2ccccc2N2C(=O)c3ccc4c5c(ccc(c35)C2=O)C(=O)N(c2ccccc2N2CCN(C)CC2)C4=O)CC1` the IC50 was 740 nM.

Test system: Quadruplex DNA
Test: Binding affinity to G-quadruplex telomeric DNA FMycT (5'-duplex GGG TTAGGG TTAGGG TTAGGG-3') (unknown origin) assessed as stabilization by measuring change in melting temperature at 10 uM in potassium buffer by FRET melting assay
Type: nucleic-acid assay
Conditions: not given

For `CN1CCN(c2ccccc2N2C(=O)c3ccc4c5c(ccc(c35)C2=O)C(=O)N(c2ccccc2N2CCN(C)CC2)C4=O)CC1`, the ΔTm was 0.9 °C and 2.3 °C.

Going from `CN1CCN(CCN2C(=O)c3ccc4c5c(ccc(c35)C2=O)C(=O)N(CCN2CCN(C)CC2)C4=O)CC1` to `C[n+]1cc(N2C(=O)c3ccc4c5c(ccc(c35)C2=O)C(=O)N(c2cc3ccccc3[n+](C)c2)C4=O)cc2ccccc21`, the ΔTm falls from 16 °C to 1.2 °C.

Test system: not listed separately
Test: Selectivity index, ratio of IC50 for cytotoxicity against human MRC5 cells to IC50 for antileishmanial activity against Leishmania major (MHOM/IL/80/Friedlin) promastigotes
Type: toxicity, cell-based
Conditions: read-out: Ratio IC50

Compared with `O=C1c2ccc3c4c(ccc(c24)C(=O)N1c1ccc(N2CCOCC2)cc1)C(=O)N(c1ccc(N2CCOCC2)cc1)C3=O`, `C[n+]1cc(N2C(=O)c3ccc4c5c(ccc(c35)C2=O)C(=O)N(c2cc3ccccc3[n+](C)c2)C4=O)cc2ccccc21` is lower in selectivity ratio: 1.5 for the first, 0.065 for the second.

Work on `CN1CCN(CCN2C(=O)c3ccc4c5c(ccc(c35)C2=O)C(=O)N(CCN2CCN(C)CC2)C4=O)CC1` yielded a selectivity ratio of 4.04.

Test system: Quadruplex DNA
Test: Binding affinity to Trypanosoma brucei G-quadruplex telomeric DNA FEBR1T (5'-duplex GGG TTAGGG TTAGGG TTAGGG-3') assessed as stabilization by measuring change in melting temperature at 10 uM in potassium buffer by FRET melting assay
Type: nucleic-acid assay
Conditions: not given

Compared with `CN1CCN(CCN2C(=O)c3ccc4c5c(ccc(c35)C2=O)C(=O)N(CCN2CCN(C)CC2)C4=O)CC1`, `C[n+]1cc(N2C(=O)c3ccc4c5c(ccc(c35)C2=O)C(=O)N(c2cc3ccccc3[n+](C)c2)C4=O)cc2ccccc21` is lower in ΔTm: 12 °C for the first, -0.9 °C for the second.
